Source: publication PMC4701174, “Novel Characteristics of Trypanosoma brucei Guanosine 5'-monophosphate Reductase Distinct from Host Animals” (PLoS Neglected Tropical Diseases, 2016)
One block for each molecule: values may come before it.

Tests used:
[1] = target: T1, T. brucei guanosine 5'-monophosphate reductase (TbGMPR) (Trypanosoma brucei, UniProt Q57ZS7); assay: NADPH consumption at […] nm, Hill fit; type: biochemical
T1 construct: gene Tb05.1P6.110; recombinant TbGMPR coding region, GST fusion in E. coli, tag cleaved with PreScission protease

[2] = target: T2, HsGMPR1 (human GMPR type 1) (Homo sapiens, UniProt P36959); assay: NADPH consumption at […] nm, Hill fit; type: biochemical
T2 construct: recombinant
T2 sequence (P36959 1-345): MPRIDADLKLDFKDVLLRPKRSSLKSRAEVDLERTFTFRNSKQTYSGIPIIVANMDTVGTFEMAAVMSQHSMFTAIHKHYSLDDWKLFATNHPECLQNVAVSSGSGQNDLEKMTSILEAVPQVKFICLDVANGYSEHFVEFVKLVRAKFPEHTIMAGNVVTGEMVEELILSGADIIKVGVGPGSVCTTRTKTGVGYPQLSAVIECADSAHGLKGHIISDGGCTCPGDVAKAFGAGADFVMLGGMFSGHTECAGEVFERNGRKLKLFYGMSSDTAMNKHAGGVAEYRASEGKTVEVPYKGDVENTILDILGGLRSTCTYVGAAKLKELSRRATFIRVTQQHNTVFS

[3] = target: T3, HsGMPR2 (human GMPR type 2) (Homo sapiens, UniProt Q9P2T1); assay: NADPH consumption at […] nm, Hill fit; type: biochemical
T3 construct: gene GMPR2; recombinant
T3 sequence (Q9P2T1 1-348): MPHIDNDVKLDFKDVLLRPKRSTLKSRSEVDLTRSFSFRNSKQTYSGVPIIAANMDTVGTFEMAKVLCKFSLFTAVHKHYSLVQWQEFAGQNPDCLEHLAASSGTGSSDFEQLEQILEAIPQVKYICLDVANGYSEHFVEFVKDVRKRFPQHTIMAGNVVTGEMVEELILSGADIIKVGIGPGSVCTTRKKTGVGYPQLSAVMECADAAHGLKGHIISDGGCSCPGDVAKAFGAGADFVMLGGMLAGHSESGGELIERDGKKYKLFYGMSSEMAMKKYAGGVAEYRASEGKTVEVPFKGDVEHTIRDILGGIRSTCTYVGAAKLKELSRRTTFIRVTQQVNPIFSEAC

[4] = target: T1, T. brucei guanosine 5'-monophosphate reductase (TbGMPR); assay: NADPH consumption at […] nm, Lineweaver-Burk, competitive inhibition fit (IC50 […]); type: biochemical
purified protein [5] = substrate: Nc1nc2c(ncn2[C@@H]2O[C@H](COP(=O)(O)O)[C@@H](O)[C@H]2O)c(=O)[nH]1; assay: purified protein; type: biochemical, Homo sapiens; conditions: NADPH
purified protein [6] = substrate: NC(=O)C1=CN([C@@H]2O[C@H](COP(=O)(O)OP(=O)(O)OC[C@H]3O[C@@H](n4cnc5c(N)ncnc54)[C@H](OP(=O)(O)O)[C@@H]3O)[C@@H](O)[C@H]2O)C=CC1; assay: purified protein; conditions: varied: cofactor
purified protein [7] = substrate: Nc1nc2c(ncn2[C@@H]2O[C@H](COP(=O)(O)O)[C@@H](O)[C@H]2O)c(=O)[nH]1; assay: purified protein; type: biochemical, Trypanosoma brucei; conditions: NADPH
purified protein [8] = substrate: NC(=O)C1=CN([C@@H]2O[C@H](COP(=O)(O)OP(=O)(O)OC[C@H]3O[C@@H](n4cnc5c(N)ncnc54)[C@H](OP(=O)(O)O)[C@@H]3O)[C@@H](O)[C@H]2O)C=CC1; assay: purified protein; type: biochemical, Trypanosoma brucei; conditions: varied: cofactor

B1: HsGMPR1 (human GMPR type 1) (Homo sapiens) (protein)
chain: MPRIDADLKLDFKDVLLRPKRSSLKSRAEVDLERTFTFRNSKQTYSGIPIIVANMDTVGTFEMAAVMSQHSMFTAIHKHYSLDDWKLFATNHPECLQNVAVSSGSGQNDLEKMTSILEAVPQVKFICLDVANGYSEHFVEFVKLVRAKFPEHTIMAGNVVTGEMVEELILSGADIIKVGVGPGSVCTTRTKTGVGYPQLSAVIECADSAHGLKGHIISDGGCTCPGDVAKAFGAGADFVMLGGMFSGHTECAGEVFERNGRKLKLFYGMSSDTAMNKHAGGVAEYRASEGKTVEVPYKGDVENTILDILGGLRSTCTYVGAAKLKELSRRATFIRVTQQHNTVFS
notes: recombinant
- Km (purified protein [5]): 22.1 ± 2.2 µM
- Km (purified protein [6]): 34.8 ± 4.3 µM

B2: T. brucei guanosine 5'-monophosphate reductase (TbGMPR) (Trypanosoma brucei brucei TREU927) (protein)
chain: MSFNESASIPTGLTYDDVLIIPQHSRVTSRKEVNTTTRLSRNVKLSIPIVASNMDTVCEQRMAVAMAREGGIGILHRFCSIEEQCAMLREVKRAQSFLIESPRIILPHETAREAWEGLNWKGRVGGVGCLLVVNCKNERKLLGIITRHDLKLADESTTVESLMTPVDKMVVSTNTSISLEEVTHLMRKGRTANVPIVGQNGQLLYLVTLSDVVKLRKNKQASLDSRGRLLVGAAVGVKKDDMNRAIRLVEAGADVLVVDIAHGHSDLCINMVKRLKGDPRTASVDIIAGNIASAEAAEALIDAGADGLKIGVGPGSICITRLVAGAGVPQLSAVLACTRVARRRGVPCIADGGLRTSGDISKAIGAGADTVMLGNMLAGTDEAPGRVLVKDGQKVKIIRGMAGFGANLSKAERERTQDEDVFSSLVPEGVEGSVACKGPVGPIVRQLVGGLRSGMSYSGAKSIEEMQRRTRFVRMTGAGLRESGSHGVAKL
notes: recombinant TbGMPR coding region, GST fusion in E. coli, tag cleaved with PreScission protease
- Km (purified protein [7]): 89.3 ± 9.0 µM
- Km (purified protein [8]): 12.3 ± 0.8 µM

Now from value to molecule:

- IC50 [1]: 23.7 ± 1.9 µM
- IC50 [2]: 120 ± 16.1 µM
- IC50 [3]: 69.3 ± 7.8 µM
Molecule: NC(=O)c1ncn([C@@H]2O[C@H](COP(=O)(O)O)[C@@H](O)[C@H]2O)c1O [MZP, mizoribine 5’-monophosphate]

- Ki [4]: 4.46 ± 0.46 µM
Molecule: NC(=O)c1ncn([C@@H]2O[C@H](COP(=O)(O)O)[C@@H](O)[C@H]2O)n1 [RMP, ribavirin 5'-monophosphate]
